Consider 47 compounds from PubChem BioAssay AID1626 (SRMLSC, 2009).

This test concerns M. tuberculosis H37Rv growth inhibition. As to the kind of experiment: M. tuberculosis H37Rv growth inhibitors, H37Rv strain (AID 1626). To be noted: for IC90: measured here: IC90 against H37Rv; for CC50: measured here: Vero cell cytotoxicity.

Where only a bound is given, the exact number is not on record here.

For `O=C(Nc1nnc(C2=COCCO2)o1)c1ccc(Cc2ccccc2)cc1`, the IC50 is 4.49 µM, the IC90 amounted to 10.6 µM and the CC50 is more than 40 µM.
As to `CCCCc1ccc(NC(=O)c2cnccn2)cc1`, the IC50 is 52.1 µM, the concentration for an effect of 90% (IC90) is more than 100 µM and the CC50 was more than 40 µM.
As for `COc1ccc2c(c1)CCc1cnc(N)nc1-2`, the IC50 is 69.9 µM, the concentration for an effect of 90% (IC90) is more than 100 µM and the CC50 was more than 40 µM.
Regarding `COc1ccc(S(=O)(=O)Oc2ccc3c(c2)O/C(=C\c2cccnc2)C3=O)cc1`, the IC50 is 2.34 µM and the IC90 amounted to 19.4 µM.
For `COc1cc(NS(=O)(=O)c2ccc(N)cc2)ncn1`, in that order: 6.02 µM and 12.2 µM.
Compound `N#C/C(=C/c1ccc(-c2ccc(Br)cc2)o1)C(=O)NC1CCCCC1` came in with an IC90 of more than 100 µM and a CC50 of more than 40 µM.
`O=C(/C=C/c1ccc(Br)cc1)c1ccco1`: the IC50 is 14.5 µM, the IC90 is 21.3 µM and the CC50 is more than 40 µM.
For `Cc1ccn2c(Nc3ccccc3C)c(-c3ccccn3)nc2c1`, in that order: 1.42 µM, 1.59 µM and 3.12 µM.
`COc1ccc(-c2cc(O)cc(O)c2)cc1`: the IC50 was 8.79 µM and the IC90 was more than 100 µM.
As to `Cc1nc2ccccn2c1C(=O)NCc1ccc2c(c1)OCO2`, the IC50 is 1.62 µM and the IC90 came to 7.83 µM.
For `CCOC(=O)CSc1nnc(-c2ccc(Cl)cc2Cl)o1`, in that order: less than 0.391 µM and 9.47 µM.
For `CCOc1ccc(N2CC(=O)Nc3ccccc3NCC2=O)cc1`, in that order: 12.5 µM and more than 100 µM.
`O=C(NCc1ccc(F)cc1)C(=O)Nc1nc(C23CC4CC(CC(C4)C2)C3)cs1`: the CC50 stood at 21.4 µM.
On to `O=C(Oc1cccc(-c2cnc3ccccc3n2)c1)c1ccco1`, for which the IC50 was 1.39 µM and the IC90 was more than 100 µM.
Turning to `O=C(Oc1c(Cl)cc(Cl)c2cccnc12)c1ccco1`, the IC50 is 1.28 µM, the IC90 came out at 1.78 µM and the CC50 amounted to 10 µM.
For `CCCn1c(=N)c(C(=O)NCc2ccc3c(c2)OCO3)cc2c(=O)n3cccc(C)c3nc21`, in that order: 19.6 µM, 31.7 µM and more than 40 µM.
For `O=C(Nc1ccc(-c2csc(Nc3cccc(C(F)(F)F)c3)n2)cc1)c1cc([N+](=O)[O-])cc(C(F)(F)F)c1`, in that order: 7.37 µM, more than 100 µM and 20.2 µM.
With `Cc1c(CNC(=O)c2cnn3c2NC(c2ccc(Br)cc2)CC3C(F)(F)F)cnn1C` (centres undefined), the IC50 is 4.09 µM and the IC90 is 6.49 µM.
For `CCSCc1nnc(SCC(=O)Nc2cccc(SC)c2)n1C`, in that order: 43.5 µM and more than 100 µM.
Take `CCCCCCCCCn1c2c(c(=N)c3c1CCC3)CCCC2`: the IC50 is 4.41 µM, the concentration for an effect of 90% (IC90) is 5.68 µM and the CC50 stood at 7.25 µM.
For `Cc1ccccc1N=Nc1ccc(O)c2ncccc12`, in that order: 21.1 µM, more than 100 µM and 0.933 µM.
For `Cc1ncn(-c2ccc(C(=O)Oc3ccccc3)cn2)n1`, in that order: 12.3 µM, more than 100 µM and 35.3 µM.
Compound `Cc1ccc(C(=O)CNc2ccc(C)c(Cl)c2)cc1` registered an IC90 of more than 100 µM.
`Cc1nn(Cc2ccccc2Cl)c2sc(C(=O)NCc3ccc4c(c3)OCO4)cc12`: the IC50 is 5.45 µM and the IC90 is 7.16 µM.
For `Cc1ccc([N+](=O)[O-])cc1NC(=O)CN(C(=O)c1ccccc1Cl)C1CCCCC1`, in that order: 3.22 µM and 5.22 µM.
Consider `O=C(O)c1ccc(N2C(=O)/C(=C/c3ccc(-c4ccc([N+](=O)[O-])cc4)o3)C=C2c2ccccc2)cc1`, for which the IC50 was 19 µM, the IC90 was 26.5 µM and the CC50 was determined as 20.1 µM.
`CCOc1ccc(N2C(=O)/C(=C\c3ccc(OC)c(O)c3)S(=O)(=O)C2c2cccc([N+](=O)[O-])c2)cc1` (centres undefined): the IC90 was more than 100 µM.
Consider `Cc1c(Cl)c([N+](=O)[O-])nn1CCCC(=O)Nc1cc(Oc2ccccc2)cc([N+](=O)[O-])c1`, for which the IC50 is 6.86 µM, the IC90 is 10.5 µM and the cytotoxic concentration (CC50) was 28.7 µM.
Consider `Nc1nc(CCOc2ccc(F)cc2)cs1`, for which the IC50 was 22.4 µM and the IC90 was more than 100 µM.
Regarding `CCOC(=O)c1ccc(NC(=O)CCNC(=O)c2ccc([N+](=O)[O-])cc2)cc1`, the IC90 is more than 100 µM.
Consider `CCc1cc2cc(C(=O)Nc3ccc(F)cc3)sc2s1`, for which the IC50 was 0.512 µM and the 90% effect concentration (IC90) came out at 0.79 µM.
`CCc1cccc2c(C(=O)COC(=O)c3ccc([N+](=O)[O-])s3)c[nH]c12`: the IC50 was less than 0.195 µM, the IC90 amounted to 0.99 µM and the CC50 is more than 40 µM.
In the case of `O=C(CN1CCN(CC(=O)Nc2ccc(OCc3ccccc3)cc2)CC1)Nc1ccc(F)cc1`, the IC50 was 34.5 µM and the IC90 is more than 100 µM.
For `O=C(CSc1nccc(=O)[nH]1)Nc1ccc(Br)c(Cl)c1`, in that order: 40.6 µM and more than 100 µM.
Turning to `CCCCn1c(=O)c(C(=O)Nc2nnc(C(C)C)s2)c(O)c2ccccc21`, the IC50 was 0.767 µM, the IC90 worked out at 0.841 µM and the CC50 is more than 40 µM.
Consider `O=C(C[n+]1cc(-c2ccc(Cl)cc2)n2c1CCC2)N1c2ccccc2Sc2ccccc21`, for which the IC50 is 12.1 µM and the IC90 was found to be 13.7 µM.
Consider `CC(C)N1C(=O)NC(=O)C2(Cc3cc([N+](=O)[O-])ccc3N(C)C2c2ccccc2)C1=O` (centres undefined), for which the IC50 was 17.8 µM, the IC90 was 52.1 µM and the CC50 was more than 40 µM.
For `Oc1ccc(COCc2ccccc2)c2cccnc12`, in that order: 3 µM, 3.31 µM and 1.6 µM.
Regarding `CCOc1ccc(N=Cc2c(O)n(-c3cc(C)cc(C)c3)c(=O)[nH]c2=O)cc1`, the IC50 is less than 0.195 µM and the IC90 was more than 100 µM.
With `Cc1cc(C)c2nc(/N=C(\N)NC(=O)Nc3ccccc3)nc(C)c2c1`, the IC50 was 4.02 µM, the IC90 came to 5.93 µM and the CC50 is more than 40 µM.
In turn, `CCOc1ccc(NC(=O)N(C2CCCCC2)C2CCN(C(C)=O)CC2)cc1` yielded an IC90 of more than 100 µM.
Turning to `O=C(CSc1ccc([N+](=O)[O-])cn1)Nc1ccc2c(c1)OCCO2`, the IC50 is 51.3 µM and the IC90 is more than 100 µM.
`CC(=O)c1c(C)n(C)c2ccc(O)cc12` returned an IC90 of more than 100 µM.
`CCCCCc1cc(=O)oc2c(C(CCN3CCCC(C)C3)c3ccc(N(C)C)cc3)c(OC)cc(OC)c12` (centres undefined): the IC50 is 5.6 µM, the IC90 was 6.31 µM and the CC50 was 16.5 µM.
For `FC(F)(F)c1cccc(Sc2nc(-c3ccccc3)nnc2C(F)(F)F)c1`, in that order: 7.32 µM, more than 100 µM and more than 40 µM.
In the case of `COC(=O)CSc1ncnc2c1sc1nc3c(cc12)COC(C)(C)C3`, the IC50 is 3.1 µM and the IC90 was found to be 10 µM.
Take `Cc1ccc(C)c(N=Nc2nc3ccccc3n2C)c1`: the IC50 was 1.33 µM, the IC90 was found to be 1.7 µM and the CC50 is more than 40 µM.

By IC50 is commonly meant the point on the concentration scale where inhibition reaches its midpoint. By IC90 is commonly meant the concentration needed for an effect of 90%. Lower therefore signals greater potency. By CC50 is commonly meant the concentration giving 50% cytotoxicity. High values mean lower toxicity to the cells, low ones greater toxicity to the cells.
